Source: publication PMC4527756 (Bioorganic & medicinal chemistry, 2015)
Like-named read-outs stand apart in the source and are kept apart here.

Tests used:
[1] = tested on: α4β2* nAChR; details: [3H]cytisine, cited from earlier work; for Ki: read-out: α4β2* Ki
[2] = molecular target: α4β2* nAChR (Rattus norvegicus, UniProt P09483+P12390); assay: radioligand binding assay, α4β2* nAChR; parameters: species or system Sprague-Dawley rat; details: for Measured activity scale: class of measured α4β2* Ki; for affinity for nAChR subtypes (in words): α4β2* and other nAChR subtypes tested
[3] = molecular target: α3β4* nAChR (Sus scrofa, UniProt A0A287A7Z4+O18764); assay: radioligand binding assay, α3β4* nAChR; parameters: species or system pig
[4] = molecular target: α7* nAChR (Rattus norvegicus, UniProt Q05941); assay: radioligand binding assay, α7* nAChR; parameters: species or system Sprague-Dawley rat
[5] = molecular target: (α1)2β1γδ ("muscle type") nAChR (Tetronarce californica, UniProt P02710+P02714+P02718); assay: radioligand binding assay, muscle type nAChR; parameters: species or system Torpedo californica
[6] = tested on: α7 nAChR; details: read-out: α7 nAChR IC50; selective α7 nAChR agonist; cited from earlier work
[7] = tested on: α4β2* nAChRs; details: cited from earlier work
[8] = tested on: mouse tail suspension test; details: cited from earlier work
[9] = tested on: mouse tail-flick test; details: cited from earlier work
[10] = molecular target: α4β2* nAChR; details: read-out: α4β2* Ki; cited from earlier work

Chain of α7* nAChR (Q05941 23-502): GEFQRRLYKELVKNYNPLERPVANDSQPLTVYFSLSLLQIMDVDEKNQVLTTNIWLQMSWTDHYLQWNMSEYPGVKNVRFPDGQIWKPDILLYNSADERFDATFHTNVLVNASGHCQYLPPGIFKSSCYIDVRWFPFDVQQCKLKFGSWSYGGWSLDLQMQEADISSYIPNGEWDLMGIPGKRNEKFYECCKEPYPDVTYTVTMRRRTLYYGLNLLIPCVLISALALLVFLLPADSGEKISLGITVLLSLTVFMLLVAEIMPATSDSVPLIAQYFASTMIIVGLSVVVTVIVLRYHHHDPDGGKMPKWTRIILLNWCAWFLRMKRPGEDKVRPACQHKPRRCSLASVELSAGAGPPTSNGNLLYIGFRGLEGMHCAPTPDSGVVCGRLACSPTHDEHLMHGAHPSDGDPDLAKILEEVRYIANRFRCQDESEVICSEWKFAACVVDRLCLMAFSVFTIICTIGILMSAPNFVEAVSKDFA
Chain of α4β2* nAChR (Rattus norvegicus, UniProt P09483+P12390) (P09483 31-630): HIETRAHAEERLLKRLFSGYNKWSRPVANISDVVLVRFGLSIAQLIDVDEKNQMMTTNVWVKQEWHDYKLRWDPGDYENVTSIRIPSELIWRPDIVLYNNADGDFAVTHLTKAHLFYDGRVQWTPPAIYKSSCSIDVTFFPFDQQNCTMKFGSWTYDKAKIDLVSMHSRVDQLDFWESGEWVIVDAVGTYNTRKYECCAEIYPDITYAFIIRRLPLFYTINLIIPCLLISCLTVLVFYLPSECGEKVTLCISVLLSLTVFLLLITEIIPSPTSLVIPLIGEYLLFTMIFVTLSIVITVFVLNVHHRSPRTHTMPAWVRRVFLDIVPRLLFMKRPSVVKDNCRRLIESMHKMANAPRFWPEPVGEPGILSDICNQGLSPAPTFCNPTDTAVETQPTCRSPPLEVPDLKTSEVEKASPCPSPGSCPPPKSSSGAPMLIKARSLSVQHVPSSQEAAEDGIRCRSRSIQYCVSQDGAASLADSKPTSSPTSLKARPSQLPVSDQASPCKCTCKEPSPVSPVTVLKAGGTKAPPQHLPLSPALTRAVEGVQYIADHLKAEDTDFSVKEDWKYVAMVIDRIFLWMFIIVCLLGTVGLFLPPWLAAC
Chain of α4β2* nAChR (Rattus norvegicus, UniProt P09483+P12390) (P12390 25-500): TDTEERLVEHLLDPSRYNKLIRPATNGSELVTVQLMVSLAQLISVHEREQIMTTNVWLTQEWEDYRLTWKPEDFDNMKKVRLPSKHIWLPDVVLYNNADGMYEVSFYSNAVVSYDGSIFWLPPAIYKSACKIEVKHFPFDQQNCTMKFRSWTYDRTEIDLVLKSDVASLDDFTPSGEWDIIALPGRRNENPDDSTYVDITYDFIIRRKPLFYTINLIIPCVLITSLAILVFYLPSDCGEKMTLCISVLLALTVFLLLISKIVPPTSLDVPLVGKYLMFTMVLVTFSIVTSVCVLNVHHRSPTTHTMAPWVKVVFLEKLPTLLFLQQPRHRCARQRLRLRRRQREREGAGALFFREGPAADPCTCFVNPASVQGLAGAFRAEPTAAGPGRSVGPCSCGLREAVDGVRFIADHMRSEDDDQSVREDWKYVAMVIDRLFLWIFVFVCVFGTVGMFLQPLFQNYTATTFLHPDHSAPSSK
Chain of (α1)2β1γδ ("muscle type") nAChR (P02718 22-522): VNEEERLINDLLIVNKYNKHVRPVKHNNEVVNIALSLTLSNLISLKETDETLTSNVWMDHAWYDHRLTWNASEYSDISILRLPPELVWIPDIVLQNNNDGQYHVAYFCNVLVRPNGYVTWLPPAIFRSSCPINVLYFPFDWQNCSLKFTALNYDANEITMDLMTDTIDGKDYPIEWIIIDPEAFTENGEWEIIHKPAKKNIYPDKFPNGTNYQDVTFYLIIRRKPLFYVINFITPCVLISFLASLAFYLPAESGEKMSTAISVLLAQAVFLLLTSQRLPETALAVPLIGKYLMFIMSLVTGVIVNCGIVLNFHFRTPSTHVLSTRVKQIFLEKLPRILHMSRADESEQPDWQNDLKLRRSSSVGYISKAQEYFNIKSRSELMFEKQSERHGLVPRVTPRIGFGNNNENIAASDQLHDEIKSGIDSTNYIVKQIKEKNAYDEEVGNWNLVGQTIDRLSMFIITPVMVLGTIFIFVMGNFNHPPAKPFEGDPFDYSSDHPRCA
Chain of (α1)2β1γδ ("muscle type") nAChR (P02714 18-506): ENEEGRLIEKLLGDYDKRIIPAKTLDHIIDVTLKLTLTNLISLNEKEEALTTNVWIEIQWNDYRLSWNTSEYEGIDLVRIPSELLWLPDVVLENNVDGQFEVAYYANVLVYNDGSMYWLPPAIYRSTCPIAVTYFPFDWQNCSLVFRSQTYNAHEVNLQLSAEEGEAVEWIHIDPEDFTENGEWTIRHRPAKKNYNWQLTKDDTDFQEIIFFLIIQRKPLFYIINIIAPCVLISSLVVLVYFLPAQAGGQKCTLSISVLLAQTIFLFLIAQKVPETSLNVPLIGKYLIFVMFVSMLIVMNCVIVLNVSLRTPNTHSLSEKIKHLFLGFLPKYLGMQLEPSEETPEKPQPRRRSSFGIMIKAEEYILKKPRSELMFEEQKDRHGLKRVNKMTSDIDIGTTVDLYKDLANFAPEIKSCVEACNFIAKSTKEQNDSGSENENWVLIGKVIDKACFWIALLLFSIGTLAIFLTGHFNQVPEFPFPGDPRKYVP
Chain of (α1)2β1γδ ("muscle type") nAChR (P02710 25-461): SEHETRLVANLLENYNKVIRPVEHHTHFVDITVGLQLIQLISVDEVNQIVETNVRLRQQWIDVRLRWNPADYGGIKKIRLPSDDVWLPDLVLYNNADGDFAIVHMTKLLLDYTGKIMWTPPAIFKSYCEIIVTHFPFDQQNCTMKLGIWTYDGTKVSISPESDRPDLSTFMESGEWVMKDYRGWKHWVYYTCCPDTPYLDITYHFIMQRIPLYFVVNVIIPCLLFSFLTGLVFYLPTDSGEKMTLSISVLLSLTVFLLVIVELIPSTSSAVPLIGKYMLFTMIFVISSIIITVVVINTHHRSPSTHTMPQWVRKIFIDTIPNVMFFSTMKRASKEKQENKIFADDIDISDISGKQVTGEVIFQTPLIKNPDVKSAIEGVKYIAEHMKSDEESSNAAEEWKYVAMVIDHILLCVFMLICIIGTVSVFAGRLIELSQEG
Chain of (α1)2β1γδ ("muscle type") nAChR (P02712 25-493, further chain): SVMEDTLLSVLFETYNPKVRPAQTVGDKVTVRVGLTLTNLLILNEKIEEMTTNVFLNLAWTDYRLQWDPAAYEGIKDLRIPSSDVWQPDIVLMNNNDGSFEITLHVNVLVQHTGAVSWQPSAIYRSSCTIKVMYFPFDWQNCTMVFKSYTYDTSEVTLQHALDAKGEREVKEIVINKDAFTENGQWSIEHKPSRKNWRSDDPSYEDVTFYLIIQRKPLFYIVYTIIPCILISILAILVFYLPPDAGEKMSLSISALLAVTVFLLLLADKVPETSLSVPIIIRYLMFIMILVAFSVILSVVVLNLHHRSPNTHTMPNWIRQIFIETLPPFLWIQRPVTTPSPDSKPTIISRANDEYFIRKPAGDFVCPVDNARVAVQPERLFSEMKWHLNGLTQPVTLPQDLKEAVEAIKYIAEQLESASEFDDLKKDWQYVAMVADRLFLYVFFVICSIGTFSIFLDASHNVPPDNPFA

## CN1CCCN(c2cccnc2)CC1 [Compound 12b]
[1]; read-out: α4β2* (IC50), printed as IC50 in Ki column
  IC50: 150 nM

## CN(C)CCOc1cncc(-c2cncc(OCCN(C)C)c2)c1 [Compound 10, 2,2′-([3,3′-bipyridine]-5,5′-diylbis(oxy))bis(N,N-dimethylethanamine)]
[2]; versus compound 9
  fold decreased α4β2* affinity in comparison with single entity 9: approximately nine-fold
[3]
  interaction with α3β4* nAChR (in words): no interaction
[4]
  interaction with α7* nAChR (in words): no interaction

## CN(C)CCOc1cc(F)cc(N2CC3CNCC(C3)C2)c1 [Compound 17b, 2-(3-(3,7-diazabicyclo[3.3.1]nonan-3-yl)-5-fluorophenoxy)-N,N-dimethylethanamine]
[5]
  Ki: > 1000 nM

## c1cncc(N2CCNCC2)c1 [Compound 13a]
[1]; ref 26
  Ki: 90 nM

## CN(C)CCOc1cncc(N2CCCCC2)c1 [Compound 24, N,N-dimethyl-2-{[5-(piperidin-1-yl)pyridin-3-yl]oxy}ethanamine]
[2]
  Measured activity scale: + (inactive +, Ki > 1,000 nM)
  affinity for nAChR subtypes (in words): complete loss of affinity

## CN(C)CCOc1cncc(N2CCC(O)CC2)c1 [Compound 26, 1-(5-(2-(dimethylamino)ethoxy)pyridin-3-yl)piperidin-4-ol]
[2]
  Measured activity scale: ++ (moderately active ++, 150 nM < Ki < 1,000 nM)
[4]
  interaction with α7* nAChR (in words): no activity

## CN(C)CCOc1cncc(N2CCCC2)c1 [Compound 23, N,N-dimethyl-2-{[5-(pyrrolidin-1-yl)pyridin-3-yl]oxy}ethanamine]
[2]
  Measured activity scale: + (inactive +, Ki > 1,000 nM)
  affinity for nAChR subtypes (in words): complete loss of affinity

## CN(C)CCOc1cncc(N2CCN(C)CC2)c1 [Compound 21a, N,N-dimethyl-2-{[5-(4-methylpiperazin-1-yl)pyridin-3-yl]oxy}ethanamine]
[2]
  Measured activity scale: +++ (highly active +++, Ki < 150 nM)
[5]
  Ki: > 1000 nM

## CN(C)CCOc1cc(N2CC3CNCC(C3)C2)cc(F)c1F [Compound 17c, 2-(5-(3,7-diazabicyclo[3.3.1]nonan-3-yl)-2,3-difluorophenoxy)-N,N-dimethylethanamine]
[5]
  Ki: > 1000 nM

## CCN(CC)CCOc1ccc2c(c1)C(=O)c1cc(OCCN(CC)CC)ccc1-2 [tilorone 8, tilorone]
[6]
  IC50: 110 nM

## CN1CCN(c2cccnc2)CC1 [Compound 13b]
[1]; ref 26
  Ki: 90 nM

## CN(C)CCOc1cncc(N2CCCNCC2)c1 [Compound 18a, 2-((5-(1,4-diazepan-1-yl)pyridin-3-yl)oxy)-N,N-dimethylethanamine]
[2]
  Measured activity scale: +++ (highly active +++, Ki < 150 nM)
[5]
  Ki: > 1000 nM

## CN(C)CCOc1cncc(N2CCC2)c1 [Compound 22, 2-{[5-(azetidin-1-yl)pyridin-3-yl]oxy}-N,N-dimethylethanamine]
[2]
  Measured activity scale: ++ (moderately active ++, 150 nM < Ki < 1,000 nM)
[4]
  interaction with α7* nAChR (in words): no activity

## CN(C)CCOc1cncc(N2CC3CNCC(C3)C2)c1 [Compound 17a, 2-((5-(3,7-diazabicyclo[3.3.1]nonan-3-yl)pyridin-3-yl)oxy)-N,N-dimethylethanamine]
[7]
  functional activity for α4β2* nAChRs (in words): partial agonist activity
[2]
  Measured activity scale: +++ (highly active +++, Ki < 150 nM)
[5]
  Ki: > 1000 nM
[8]
  effect in the mouse tail suspension test (in words): efficacy in the mouse tail suspension test

## CN(C)CCOc1cncc(N2CCNCC2)c1 [Compound 20a, N,N-dimethyl-2-{[5-(piperazin-1-yl)pyridin-3-yl]oxy}ethanamine]
[2]
  fold lower α4β2* affinity in comparison with compound 17a: about 770 fold
  Measured activity scale: +++ (highly active +++, Ki < 150 nM)
[5]
  Ki: > 1000 nM

## CN(C)CCOc1cncc(N2CCOCC2)c1 [Compound 25, N,N-dimethyl-2-{[5-(morpholin-4-yl)pyridin-3-yl]oxy}ethanamine]
[2]
  Measured activity scale: + (inactive +, Ki > 1,000 nM)
  affinity for nAChR subtypes (in words): complete loss of affinity

## CN(C)CCOc1cncc(N2CCCN(C)CC2)c1 [Compound 19a, N,N-dimethyl-2-((5-(4-methyl-1,4-diazepan-1-yl)pyridin-3-yl)oxy)ethanamine]
[2]
  Ki: 6.9 nM
  Measured activity scale: ++ (moderately active ++, 150 nM < Ki < 1,000 nM)

## CN(C)CCOc1cccnc1 [Compound 9, N,N-dimethyl-2-(pyridin-3-yloxy)ethan-1-amine]
[9]
  In vivo activity ED50: ED50 (mg/kg) = 15 (mouse tail-flick test) [24]
[1]; ref 23
  Ki: 32.6 nM
[1]; ref 24
  Ki: 24 nM

## CN1[C@@H](CC(=O)c2ccccc2)CCC[C@H]1C[C@H](O)c1ccccc1 [Lobeline 1, lobeline]
[10]
  Ki: 4 to 30 nM
